ChEMBL document CHEMBL5321274, “Second-Generation AUTACs for Targeted Autophagic Degradation” (J Med Chem, 2023)
Active and inactive are the calls of the source. No cut-off for these calls is given here.

Tests used:
HeLa [1] = assay: Induction of autophagy mediated Halotag-fused EGFP (unknown origin) degradation expressed in human HeLa cells assessed as reduction in EGFP-HT substrate level at 0.01 to 1 uM measured after 24 hrs by fluorescence microscopic analysis; format: cell-based; conditions: dose 0.01-1 µM
HeLa [2] = assay: Induction of autophagy mediated Halotag-fused EGFP (unknown origin) degradation expressed in human HeLa cells assessed as reduction in EGFP-HT substrate level at 0.1 to 10 uM measured after 24 hrs by fluorescence microscopic analysis; format: cell-based; conditions: dose 0.1-10 µM
HeLa [3] = assay: Induction of EGFP-tagged FKBP12 degradation in human HeLa cells assessed as reduction in FKBP12 protein level at 1 to 10 uM incubated for 48 hrs in presence of 100 uM 8H-FBnG by immunoblot analysis; format: cell-based; conditions: dose 1-10 µM
HeLa [4] = assay: Induction of EGFP-tagged FKBP12 degradation in human HeLa cells assessed as protein knockdown at 1 uM incubated for 48 hrs by immunoblot analysis; format: cell-based
HeLa [5] = assay: Induction of EGFP-tagged FKBP12 degradation in human HeLa cells assessed as reduction in FKBP12 protein level at 0.001 to 10 uM incubated for 48 hrs in presence of bafilomycin Al treated for last 12 hrs by immunoblot analysis; format: cell-based; conditions: dose 0.001-10 µM
MEF [6] = assay: Induction of EGFP-tagged FKBP12 degradation in p62-/- MEF cells assessed as reduction in FKBP12 level incubated for 48 hrs by immunoblot analysis; format: cell-based; conditions: Mus musculus
MEF [7] = assay: Induction of EGFP-tagged FKBP12 degradation in […] MEF cells assessed as reduction in FKBP12 level incubated for 48 hrs by immunoblot analysis; format: cell-based; conditions: Mus musculus
HeLa [8] = assay: Effect on FKBP12 mRNA transcription level in human HeLa cells at 0.1 to 10 uM incubated for 48 hrs by RT-PCR analysis; format: functional, cell-based; conditions: dose 0.1-10 µM
HeLa [9] = assay: Induction of autophagy mediated Halotag-fused EGFP (unknown origin) degradation expressed in human HeLa cells assessed as reduction in EGFP-HT substrate level measured after 24 hrs by fluorescence microscopic analysis; format: cell-based; conditions: dose 1-10 µM
HeLa [10] = assay: Induction of autophagy mediated Rosella/Halotag-fused EGFP (unknown origin) degradation expressed in human HeLa cells assessed as lysosomal degradation of EGFP-HT substrate at 1 uM incubated for 24 hrs by fluorescence microscopic analysis; format: cell-based
HeLa [11] = assay: Induction of autophagy mediated Halotag-fused EGFP (unknown origin) degradation expressed in human HeLa cells assessed as reduction in EGFP-HT substrate level at 1 uM incubated for 24 hrs in presence of bafilomycin Al by fluorescence microscopic analysis; format: cell-based
MEF [12] = assay: Induction of autophagy mediated Halotag-fused EGFP (unknown origin) degradation transiently expressed in Atg5-/- MEF cells assessed as reduction in EGFP-HT substrate level at 1 uM measured after 24 hrs by fluorescence microscopic analysis; format: cell-based
HeLa [13] = assay: Cytotoxicity against human HeLa cells expressing Halotag-fused EGFP assessed as reduction in cell survival rate at 0.001 to 100 uM; format: toxicity, cell-based; conditions: dose 0.001-100 µM
MEF [14] = assay: Induction of autophagy mediated Halotag-fused EGFP (unknown origin) degradation transiently expressed in Atg5+/+ MEF cells assessed as reduction in EGFP-HT substrate level at 1 uM measured after 24 hrs by fluorescence microscopic analysis; format: cell-based
HeLa [15] = assay: Induction of autophagy mediated Halotag-fused EGFP (unknown origin) degradation expressed in human HeLa cells assessed as reduction in EGFP-HT substrate level at 1 to 10 uM measured after 12 to 24 hrs by fluorescence microscopic analysis; format: cell-based; conditions: dose 1-10 µM, time 12-24 hrs
HeLa [16] = assay: Induction of autophagy mediated Halotag-fused EGFP (unknown origin) degradation expressed in human HeLa cells assessed as reduction in EGFP-HT substrate level at <1 uM measured after 24 hrs by fluorescence microscopic analysis; format: cell-based

CC(=O)NC(CSc1nc2c(=O)[nH]c(N)nc2n1Cc1ccccc1F)C(=O)NCCOCCOCCOCCOCCOCCCCCCCl (single isomer, unassigned)
Activity (HeLa [1]): inactive

Fc1ccc(Cn2c(-c3cnn(CCOCCOCCOCCOCCOCCCCCCCl)c3)nc3ccccc32)cc1
Activity (HeLa [2]): inactive

CCC(C)(C)C(=O)C(=O)N1CCCC[C@H]1C(=O)O[C@H](CCc1ccc(OC)c(OC)c1)c1cccc(NC(=O)CCC(=O)NCCCOCCOCCOCCCn2cc(-c3nc4c(=O)[nH]c(N)nc4n3Cc3ccc(F)cc3)cn2)c1
Activity (HeLa [3]): inactive
Activity (HeLa [4]): Active
Activity (HeLa [5]): inactive
Activity (MEF [6]): inactive
Activity (MEF [7]): inactive
Activity (HeLa [8]): inactive

O=c1[nH]cnc2c1nc(-c1cnn(CCOCCOCCOCCOCCOCCCCCCCl)c1)n2Cc1ccc(F)cc1
Activity (HeLa [2]): inactive

CC(=O)NC(CSc1nc2c(=O)[nH]c(N)nc2n1Cc1ccccc1)C(=O)NCCOCCOCCOCCOCCOCCCCCCCl (single isomer, unassigned)
Activity (HeLa [1]): inactive

Nc1nc2c(nc(-c3cccc(OCCOCCOCCOCCOCCOCCCCCCCl)c3)n2Cc2ccc(F)cc2)c(=O)[nH]1
Activity (HeLa [1]): Active

Nc1nc2c(nc(-c3ccc(OCCOCCOCCOCCOCCOCCCCCCCl)cc3)n2Cc2ccc(F)cc2)c(=O)[nH]1
Activity (HeLa [1]): Active

Cn1c(=O)c2nc(-c3cnn(CCOCCOCCOCCOCCOCCCCCCCl)c3)n(Cc3ccc(F)cc3)c2n(C)c1=O
Activity (HeLa [2]): inactive

CC(=O)NC(CSc1nc2c(=O)[nH]c(N)nc2n1Cc1ccc(Cl)cc1)C(=O)NCCOCCOCCOCCOCCOCCCCCCCl (single isomer, unassigned)
Activity (HeLa [9]): Dose-Dependent Effect

CC(=O)NC(CSc1nc2c(=O)[nH]c(N)nc2n1Cc1ccc(S(C)(=O)=O)cc1)C(=O)NCCOCCOCCOCCOCCOCCCCCCCl (single isomer, unassigned)
Activity (HeLa [1]): inactive

Nc1nc2c(nc(-c3cnn(CCOCCOCCOCCOCCOCCCCCCCl)c3)n2Cc2ccc(F)cc2)c(=O)[nH]1
Activity (HeLa [10]): Active
Activity (HeLa [11]): inactive
Activity (MEF [12]): inactive
Activity (HeLa [13]): Non-Toxic
Activity (HeLa [1]): Active
Activity (MEF [14]): Active
Activity (HeLa [15]): Active
Activity (HeLa [16]): Active

Nc1ncnc2c1nc(-c1cnn(CCOCCOCCOCCOCCOCCCCCCCl)c1)n2Cc1ccc(F)cc1
Activity (HeLa [2]): inactive

COc1ccc(Cn2c(SCC(NC(C)=O)C(=O)NCCOCCOCCOCCOCCOCCCCCCCl)nc3c(=O)[nH]c(N)nc32)cc1 (single isomer, unassigned)
Activity (HeLa [1]): inactive

CC(=O)NC(CSc1nc2c(=O)[nH]c(N)nc2n1Cc1ccc(C)cc1)C(=O)NCCOCCOCCOCCOCCOCCCCCCCl (single isomer, unassigned)
Activity (HeLa [1]): inactive

Nc1nc2c(nc(-c3cn(CCOCCOCCOCCOCCOCCCCCCCl)nn3)n2Cc2ccc(F)cc2)c(=O)[nH]1
Activity (HeLa [1]): Active

CC(=O)NC(CSc1nc2c(=O)[nH]c(N)nc2n1Cc1cccc(F)c1)C(=O)NCCOCCOCCOCCOCCOCCCCCCCl (single isomer, unassigned)
Activity (HeLa [1]): inactive

CC(=O)NC(CSc1nc2c(=O)[nH]c(N)nc2n1Cc1ccc(C#N)cc1)C(=O)NCCOCCOCCOCCOCCOCCCCCCCl (single isomer, unassigned)
Activity (HeLa [1]): inactive

Fc1ccc(Cn2ccnc2-c2cnn(CCOCCOCCOCCOCCOCCCCCCCl)c2)cc1
Activity (HeLa [2]): inactive
